Experimental data from patent US20100240589A1, “DIASTEREOMERIC PEPTIDES USEFUL AS INHIBITORS OF MEMBRANE PROTEIN ASSEMBLY” (YEDA RESEARCH AND DEVELOPMENT CO., LTD. AT THE WEIZMANN …, priority 2003, published 2010).

System: CP362 bacteria overexpressing the Tar receptor (pNT201)
Experiment: Swarm assay on TB semi-solid agar (chemotaxis)
Type: cell-based, Escherichia coli
Conditions: 20 μM peptide, 35° C.

Sequence	expansion speed / chemotactic behavior of the bacteria
KKKMVLGVFALLFLIGGSLKK [F/G mutant peptide]	no significant effect
KKKMVLGVFALLQLISGSLKK [Tar-1 all-L, peptide corresponding to the transmembrane domain 1 of Tar, reference compound]	significantly reduced
